Source: US9133209B2, “Insecticidal 4-amino-thieno[2,3-D]-pyrimidine compounds and methods of their use” (priority 2009, dated 2015)

Tests used:
Format in all cases: in vivo
[1] = system: Rice Brown Plant Hopper (Nilaparvata lugens); experiment: Rice brown plant hopper test on sprayed rice seedlings; settings: for activity in [%]: Nilaparvata lugens, 300 ppm, scale 0% no biological activity to 100% total control; for mortality at 300 ppm: Nilaparvata lugens adults on sprayed rice seedlings, 72 hours, read-out: mortality in comparison with untreated controls
Method: B.3 Rice Brown Plant Hopper (Nilaparvata lugens)
Rice seedlings were cleaned and washed 24 hours before spraying. The active compounds were formulated in 50:50 acetone:water (vol:vol) and 0.1% vol/vol surfactant (EL 620) was added. Potted rice seedlings were sprayed with 5 ml test solution, air dried, placed in cages and inoculated with 10 adults. Treated rice plants were kept at about 28-29° C. and relative humidity of about 50-60%. Percent mortality was recorded after 72 hours.

[2] = system: Cowpea Aphid (aphis craccivora); experiment: Cowpea aphid spray test on potted cowpea plants; settings: for mortality at 300 ppm: Aphis craccivora, cowpea aphid on potted cowpea plants, sprayed, assessed after 24, 72 and 120 hours, read-out: mortality in comparison with untreated controls; for activity in [%]: Cow pea aphid, 300 ppm, scale 0% no biological activity to 100% total control
Method: (§1) Under general conditions, if not otherwise specified, most test solutions are prepared as follow: The active compound is dissolved at the desired concentration in a mixture of 1:1 (vol:vol) distilled water:acetone. The test solution is prepared at the day of use.
(§2) Test solutions are prepared in general at concentrations of 1000 ppm, 500 ppm, 300 ppm, 100 ppm and 30 ppm (wt/vol).
B.1 Cowpea Aphid (aphis craccivora)
Potted cowpea plants colonized with approximately 100-150 aphids of various stages were sprayed after the pest population has been recorded. Population reduction was assessed after 24, 72, and 120 hours.

[3] = system: Spider Mite (Tetranychus spp.); experiment: Spider mite contact/oral activity on potted cotton plants; settings: for mortality at 300 ppm: Tetranychus, po, spider mites on potted cotton plants, sprayed, assessed after 24, 72 and 120 hours, read-out: mortality in comparison with untreated controls; for activity in [%]: Spider mite, 300 ppm, scale 0% no biological activity to 100% total control
Method: as §1, §2
B.2 Spider Mite (Tetranychus spp.)
Potted cotton plants colonized with approximately 50 mites of various stages are sprayed after the pest population has been recorded. Population reduction (or increase) after 24, 72, and 120 hours is assessed.

[4] = system: Yellow Fever Mosquito (Aedes aegypti) neonate larvae; experiment: Yellow fever mosquito larval motility assay in microtiter plates
Method: B.4. Activity Against Yellow Fever Mosquito (Aedes aegypti)
The compounds were formulated in 100% DMSO and were tested in microtiter plates containing 180 ul 1× Luria Broth media and 10 neonate A. aegypti larvae. The efficacy of a compound was determined based on the motility of the larvae as compared to average motility of control wells containing DMSO only. Compounds with >80% reduction in motility at a concentration of 10 ppm were tested in a dose response assay to determine EC50 values.

[5] = system: Ctenocephalides felis fleas; experiment: Rat ectoparasiticide model (flea infestation, topical treatment); settings: for Efficacy in [%]: Ctenocephalides felis on rats; for reduction of flea counts (% efficacy): rats, topical, 48 hours post-treatment, average, n=2 replicas
Method: B.5. Activity in Rat Ectoparasiticide Model
Rats were infested with 50 Ctenocephalides felis fleas. Approximately twenty four hours later rats (3 per group) were treated topically with test compounds at doses of 20 mg/kg or 10 mg/kg body weight. Placebo (vehicle) and positive control groups were included in each study. Forty eight hours post-treatment, fleas were collected from each rat using a flea comb. The percent efficacy per treatment group was calculated using the following formula: % efficacy=100×(C−T)/C
where C is the geometric mean of live fleas recovered in the placebo group and T is the geometric mean of live fleas recovered in the respective treatment group.

SMILES	activity in [%] [1] [%]	mortality at 300 ppm [2] [%]	activity in [%] [2] [%]	activity in [%] [3] [%]	also measured
CSc1ccc(C(C)Nc2ncnc3scc(Cl)c23)cc1 (centres unmarked) [CE.1, reference compound]	0	–	–	–	–
CC(Nc1ncnc2scc(Cl)c12)c1ccc(SC(F)(F)C(F)(F)F)cc1 (centres unmarked) [C.6]	–	> 80	–	–	mortality at 300 ppm [3]: > 80%; mortality at 300 ppm [1]: > 80%
FC(F)(F)Sc1ccc(CNc2ncnc3scc(Cl)c23)cc1 [C.1]	–	> 80	–	–	–
C[C@H](Nc1ncnc2scc(Cl)c12)c1ccc(SC(F)(F)F)cc1 [C.3-S, (5-Chloro-thieno[2,3-d]pyrimidin-4-yl)-[(S)-1-(4-trifluoromethylsulfanyl-phenyl)-ethyl]-amine]	100	–	100	90	EC50 (section headed 'Activity at 1 [ppm]') [4]: 0.21 ppm; Efficacy in [%] ([5]; dosage 10 mg/kg): 71%; Efficacy in [%] ([5]; dosage 20 mg/kg): 89%; reduction of flea counts (% efficacy) ([5]; 10 mg/kg): 71%; reduction of flea counts (% efficacy) ([5]; 20 mg/kg): 89%
C[C@@H](Nc1ncnc2scc(Cl)c12)c1ccc(SC(F)(F)F)cc1 [C.3-R]	0	–	0	0	–
CC(Nc1ncnc2scc(Cl)c12)c1ccc(SCC(F)(F)F)cc1 (centres unmarked) [C.5]	–	> 80	–	–	–
C[C@H](Nc1ncnc2scc(Cl)c12)c1ccc(OC(F)(F)F)cc1 [CE.2, reference compound]	–	–	–	50	Efficacy in [%] ([5]; dosage 10 mg/kg): 70%; Efficacy in [%] ([5]; dosage 20 mg/kg): 82%
CC(Nc1ncnc2scc(Cl)c12)c1ccc([S+]([O-])C(F)(F)F)cc1 (centres unmarked) [C.4]	–	> 80	–	–	–
CC(Nc1ncnc2scc(Cl)c12)c1ccc(SC(F)(F)F)cc1 (centres unmarked) [C.3]	100	> 80	100	90	mortality at 300 ppm [3]: > 80%; mortality at 300 ppm [1]: > 80%; EC50 (section headed 'Activity at 1 [ppm]') [4]: 0.29 ppm
CC(Nc1ncnc2scc(Cl)c12)c1ccc(SC(F)F)cc1 (centres unmarked) [C.2]	–	> 80	–	–	–
